The target of one assay is T1, F103A hP2X7 (Homo sapiens, UniProt Q99572, F103A).
T1 sequence (Q99572 1-595 F103A): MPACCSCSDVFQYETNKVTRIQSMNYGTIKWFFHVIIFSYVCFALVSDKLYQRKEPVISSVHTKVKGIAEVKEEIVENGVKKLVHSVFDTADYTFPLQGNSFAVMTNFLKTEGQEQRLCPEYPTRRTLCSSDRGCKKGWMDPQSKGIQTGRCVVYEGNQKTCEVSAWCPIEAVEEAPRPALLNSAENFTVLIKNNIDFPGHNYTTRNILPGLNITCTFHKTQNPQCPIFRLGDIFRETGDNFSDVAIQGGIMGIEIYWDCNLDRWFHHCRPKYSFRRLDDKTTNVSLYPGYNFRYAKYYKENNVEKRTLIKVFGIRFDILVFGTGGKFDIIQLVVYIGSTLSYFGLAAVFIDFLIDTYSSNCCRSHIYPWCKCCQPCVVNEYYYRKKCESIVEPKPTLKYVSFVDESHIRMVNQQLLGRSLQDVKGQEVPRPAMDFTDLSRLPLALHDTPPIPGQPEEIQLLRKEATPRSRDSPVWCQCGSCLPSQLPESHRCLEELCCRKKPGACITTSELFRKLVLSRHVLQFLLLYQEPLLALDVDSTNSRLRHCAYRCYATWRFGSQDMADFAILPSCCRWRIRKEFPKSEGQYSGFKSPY
Nature of the assay: fura-2 intracellular calcium assay on HEK-293 stable cell line expressing NAM-site mutant F103A hP2X7. Format: cell-based. The conditions noted are these: for IC50: n = 3. As to the method: (§1) Transfection was performed using lipofectamine 2000 (Fisher Scientific), and cells were subjected to Geneticin (800 μg/mL) selection for 2–3 weeks. This was followed by single cell cloning by limiting dilution in 96-well plates. Individual clones were selected for further study based on ATP-induced TO-PRO-3 uptake on a BD Cytoflex flow cytometer. Cell lines were maintained in DMEM:F12 media supplemented with 10% fetal bovine serum (PanBiotech), penicillin and streptomycin (Fisher Scientific) and kept in a humidified incubator with 5% CO2. Stable P2X7-expressing cells were kept under Geneticin selection at a concentration of 400 μg/mL. Passaging was performed twice weekly using 0.25% Trypsin-EDTA (Fisher Scientific).
(§2) P2X7 responses were measured by monitoring intracellular calcium responses using fura-2AM loaded cells. Cells were plated at 2–2.5 × 10^4 cells/well the day before experiments in 96-well plates (NUNC) coated with 50 μg/mL poly-D-lysine (Merck Millipore). A loading buffer containing 2 μM fura-2AM (HelloBio) and 250 μM sulfinpyrazone (Merck Millipore) in a low divalent buffer (145 mM NaCl, 5 mM KCl, 0.2 mM CaCl2, 10 mM HEPES, 13 mM glucose, pH 7.3) was added to cells for 45 min at 37 °C. After loading, the buffer was removed and replaced with calcium-containing extracellular solution (145 mM NaCl, 5 mM KCl, 2 mM CaCl2, 10 mM HEPES, 13 mM glucose, pH 7.3). Responses were measured using a Flexstation 3 plate reader (Molecular Devices) with dual excitation wavelengths of 340 and 380 nm and single emission wavelength of 510 nm. The sample interval was 3.5 s, and each well was recorded for 180 s. Fura-2 ratios were calculated in Softmax Pro v5.4; zero baseline was applied, and responses were measured as normalized area under the curve (AUC). Dose inhibition curves were plotted using GraphPad Prism v6 nonlinear regression (three parameter fit) and log IC50 values reported.

In the next assay the target is T2, M105A hP2X7 (Homo sapiens, UniProt Q99572, M105A).
T2 sequence (Q99572 1-595 M105A): T1 sequence (Q99572 1-595 F103A) with A103F, M105A
Put plainly: fura-2 intracellular calcium assay on HEK-293 stable cell line expressing NAM-site mutant M105A hP2X7. The assay is classed as cell-based. The conditions noted are these: for IC50: n = 3. As to the method: as §1, §2

The values below come from publication PMC12426935, “On-Cell Saturation Transfer Difference NMR Spectroscopy on Ion Channels: Characterizing Negative Allosteric Modulator Binding Interactions of P2X7” (Journal of the American Chemical Society, 2025).

Numbering of substitutions follows the chain as printed. Like-named read-outs stand apart in the source and are kept apart here.

Regarding `O=C(NCC1(N2CCN(c3ccccc3)CC2)CCOCC1)c1cccnc1Sc1ccccc1` [JNJ-47965567], the concentration for half-maximal inhibition (IC50) on F103A hP2X7 (F103A hP2X7, agonist ATP, log IC50 ± standard error, read-out: Log IC50 (converted)) is 155 nM; on F103A hP2X7 (F103A hP2X7, agonist ATP, mean in brackets, read-out: mean IC50), 161 nM; at F103A hP2X7 (F103A hP2X7, agonist BzATP, mean in brackets, read-out: mean IC50), 59.1 nM; on M105A hP2X7 (M105A hP2X7, agonist ATP, log IC50 ± standard error, read-out: Log IC50 (converted)), 45.6 nM; on M105A hP2X7 (M105A hP2X7, agonist ATP, mean in brackets, read-out: mean IC50) it was 45 nM; on M105A hP2X7 (M105A hP2X7, agonist BzATP, mean in brackets, read-out: mean IC50) it was 28.7 nM. Further, the “loss in potency (increase in IC50) at F103A relative to WT hP2X7” value on F103A hP2X7 (F103A hP2X7 vs hP2X7) was 10 fold. For the same compound, the “increase in IC50 at M105A-hP2X7 relative to hP2X7” value at M105A hP2X7 (M105A hP2X7 vs hP2X7) is reported as “less than 5 fold”.
